Consider seven molecules from ChEMBL document CHEMBL1157251, “Bioactive compounds from Peperomia pellucida” (J Nat Prod, 2006).

One experiment concerns the target T1, Estrogen receptor (Homo sapiens, UniProt P03372).
T1 sequence (P03372 whole entry): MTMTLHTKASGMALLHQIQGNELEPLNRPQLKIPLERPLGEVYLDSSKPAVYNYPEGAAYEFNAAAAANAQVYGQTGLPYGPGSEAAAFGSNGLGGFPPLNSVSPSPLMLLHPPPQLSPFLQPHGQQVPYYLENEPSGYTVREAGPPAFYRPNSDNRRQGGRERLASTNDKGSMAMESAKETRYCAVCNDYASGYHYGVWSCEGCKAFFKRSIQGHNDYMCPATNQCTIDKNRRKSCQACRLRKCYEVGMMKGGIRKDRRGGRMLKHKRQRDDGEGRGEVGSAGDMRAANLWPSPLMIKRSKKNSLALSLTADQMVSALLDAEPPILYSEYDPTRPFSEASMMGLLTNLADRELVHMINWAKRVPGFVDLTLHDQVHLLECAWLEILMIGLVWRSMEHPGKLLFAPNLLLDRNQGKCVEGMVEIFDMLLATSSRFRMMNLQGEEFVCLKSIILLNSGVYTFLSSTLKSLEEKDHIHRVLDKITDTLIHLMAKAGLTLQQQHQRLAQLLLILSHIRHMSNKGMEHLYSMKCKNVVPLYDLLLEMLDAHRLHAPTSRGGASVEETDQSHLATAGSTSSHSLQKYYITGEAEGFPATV
As to the kind of experiment: Agonist activity at human ERalpha expressed in african green monkey CV1 cells by luciferase reporter gene assay relative to 17beta estradiol. The experiment is classed as functional, cell-based, CV-1. (In general: In a reporter assay the amount or activity of a reporter protein is the signal.)

The subject of experiment [1] is MCF7. As to the kind of experiment: Promotion of cell proliferation in human MCF7 cells. It counts as functional, cell-based.
For experiment [2], the system named is HeLa. The experiment in a line: Antiproliferative effect against human HeLa cells after 69 hrs by MTT assay. The experiment is classed as functional, cell-based.
The test system of experiment [3] is HeLa. As to the kind of experiment: Growth inhibition of human HeLa cells at 20 uM after 69 hrs by MTT assay. The experiment is classed as functional. Conditions: read-out: GI. On the technique in general: Tetrazolium assays rely on reduction of a dye to a coloured formazan, in cell work by metabolically active cells.
Experiment [4] deals with MCF7. The experiment in a line: Antiproliferative effect against human MCF7 cells after 72 hrs by MTT assay. Conditions: MCF7, 72 h. The experiment is classed as functional, cell-based.
Experiment [5] concerns MCF7. The experiment in a line: Growth inhibition of human MCF7 cells at 20 uM after 72 hrs by MTT assay. It counts as functional. The settings on record: MCF7, 72 h, read-out: GI.
The subject of experiment [6] is HL-60. As to the kind of experiment: Growth inhibition of human HL60 cells at 20 uM after 69 hrs. The experiment is classed as functional. Conditions: HL-60, 69 h, read-out: GI.
Experiment [7] has as its system HL-60. As to the kind of experiment: Antiproliferative effect against human HL60 cells after 69 hrs. The experiment is classed as functional, cell-based. Conditions: HL-60, 69 h.

Broadly, the EC50 is the concentration at which the effect is half-maximal. By IC50 is commonly meant the concentration that inhibits the measured activity by half.

Molecules are shown by their SMILES.

Consider `COc1cc([C@H]2O[C@@H](c3cc(OC)c4c(c3)OCO4)[C@@H](CO)[C@@H]2COC(C)=O)cc2c1OCO2`, for which the concentration giving a half-maximal response (EC50) at Estrogen receptor was determined as 3.1 µM; in the experiment with MCF7 [1], 0.142 µM.

For the molecule `C=C1C(=O)OCC1C(c1cc(OC)c(OC)c(OC)c1)c1cc(OC)c2c(c1)OCO2` (stereo not given), the results for the 50% inhibitory concentration (IC50) in the experiment with HeLa [2], with MCF7 [4] and with HL-60 [7] were 9.1 µM, 3.8 µM and 1.4 µM, respectively. Further, the inhibition of growth at 20 µM in the experiment on HeLa [3] was found to be 96%; in the experiment on MCF7 [5], 91%; with HL-60 [6], 92%.

With `COc1cc(OC)c(C2CCC(=O)c3c(OC)cc(OC)c(OC)c32)cc1OC` (stereo not given), the inhibition of growth at 20 µM in the experiment on HeLa [3] is < 5%; in the experiment on MCF7 [5] it was 37.6%; in the experiment with HL-60 [6] it was < 5%.

On to `COc1cc(C(c2cc(OC)c3c(c2)OCO3)[C@@H]2COC(=O)[C@H]2C)cc(O)c1OC` (relative stereo), for which the values for the inhibition of growth at 20 µM with HeLa [3], with MCF7 [5] and in the experiment with HL-60 [6] were 10%, 53.2% and 92%, respectively. In the experiment on HL-60 [7], this molecule showed an IC50 of 10.8 µM.

As to `COc1cc([C@@H]2c3cc4c(cc3[C@@H](O[C@@H]3O[C@@H]5CO[C@@H](C)O[C@H]5[C@H](O)[C@H]3O)[C@H]3COC(=O)[C@H]23)OCO4)cc(OC)c1O` [ETOPOSIDE], the values for the IC50 in the experiment with HeLa [2], in the experiment with MCF7 [4] and with HL-60 [7] were 3.6 µM, 0.19 µM and 0.21 µM, respectively. Besides, the inhibition of growth at 20 µM with HeLa [3] turned out to be 85.3%; in the experiment with MCF7 [5] it was 73.5%; in the experiment with HL-60 [6] it was 93.5%.

Consider `COc1cc(C(c2cc(OC)c3c(c2)OCO3)[C@@H]2COC(=O)[C@H]2C)cc2c1OCO2` [PEPEROMIN A], for which the inhibition of growth at 20 µM is < 5% with HeLa [3], 27.7% with MCF7 [5] and 17% in the experiment on HL-60 [6].

For the molecule `C=C1C(=O)OC[C@H]1C(c1cc(OC)c2c(c1)OCO2)c1cc(OC)c2c(c1)OCO2` [PEPEROMIN E], the IC50 is 11.1 µM in the experiment with HeLa [2], 3.9 µM in the experiment on MCF7 [4] and 1.8 µM in the experiment with HL-60 [7]. Also, the inhibition of growth at 20 µM came to 95% in the experiment with HeLa [3], 90.7% in the experiment on MCF7 [5] and 93% in the experiment with HL-60 [6].
